Measured values published in publication PMC6222422, “Synthesis and Biological Evaluation of Novel Indole-Derived Thioureas” (Molecules : A Journal of Synthetic Chemistry and Natural …, 2018).
Values after ≈ are worked out from the molar mass of the structure shown.

How the values were obtained:
[1] = Cytotoxicity, MTT method; settings: Syrian hamster (Mesocricetus auratus)
[2] = system: YFV; experiment: microbe, parasite or virus in culture; assay type: cell-based; settings: Yellow fever virus, BHK, read-out: YFV EC50
[3] = system: BVDV; experiment: microbe, parasite or virus in culture; assay type: cell-based, bovine viral diarrhoea virus; settings: Bovine viral diarrhea virus isolates and strains, MDBK, in Bos taurus, read-out: BVDV EC50
[4] = Cytotoxicity, MTT method; settings: cattle (Bos taurus)
[5] = system: Sb-1; experiment: microbe, parasite or virus in culture; assay type: cell-based, poliovirus type-1; settings: Enterovirus C, Vero 76, read-out: Sb-1 EC50
[6] = system: Reo-1; experiment: microbe, parasite or virus in culture; assay type: cell-based, reovirus type-1; settings: Reovirus sp., BHK, read-out: Reo-1 EC50
[7] = in vitro; settings: cattle (Bos taurus)
[8] = system: VV; experiment: microbe, parasite or virus in culture; assay type: cell-based; settings: Orthopoxvirus vaccinia, Vero 76, read-out: VV EC50
[9] = system: CV-B5; experiment: microbe, parasite or virus in culture; assay type: cell-based, coxsackievirus B5; settings: Enterovirus B, CVB5, Vero 76, read-out: CV-B5 EC50
[10] = system: RSV; experiment: microbe, parasite or virus in culture; assay type: cell-based, human respiratory syncytial virus; settings: for EC50: human respiratory syncytial virus, Vero 76, read-out: RSV EC50
[11] = system: VSV; experiment: microbe, parasite or virus in culture; assay type: cell-based; settings: Vesicular stomatitis virus, Vero 76, read-out: VSV EC50
[12] = in vitro; settings: human
[13] = in vitro; settings: Syrian hamster (Mesocricetus auratus)
[14] = in vitro; settings: African green monkey (Cercopithecus aethiops)
[15] = system: HSV-1; experiment: microbe, parasite or virus in culture; assay type: cell-based, human herpes 1; settings: Human alphaherpesvirus 1, Vero 76, read-out: HSV-1 EC50
[16] = system: HIV-1; experiment: microbe, parasite or virus in culture; settings: Human immunodeficiency virus 1, MT4, read-out: HIV-1 EC50
[17] = Cytotoxicity, MTT method; settings: African green monkey (Cercopithecus aethiops)
[18] = system: B. cereus ATCC 11778; experiment: disc diffusion method; assay type: cell-based, Bacillus cereus; settings: Bacillus cereus, ATCC11778, applied 400 µg per disc, dash = lack of the growth inhibition area, read-out: diameter of growth inhibitory zone (GIZ)
[19] = system: B. subtilis ATCC 6633; experiment: disc diffusion method; assay type: cell-based, Bacillus subtilis; settings: Bacillus subtilis, ATCC6633, applied 400 µg per disc, dash = lack of the growth inhibition area, read-out: diameter of growth inhibitory zone (GIZ)
[20] = system: S. aureus ATCC 6538; experiment: disc diffusion method; assay type: cell-based, Staphylococcus aureus; settings: Staphylococcus aureus, ATCC6538, applied 400 µg per disc, dash = lack of the growth inhibition area, read-out: diameter of growth inhibitory zone (GIZ)
[21] = system: S. aureus NCTC 4163; experiment: disc diffusion method; assay type: cell-based, Staphylococcus aureus; settings: Staphylococcus aureus, NCTC4163, applied 400 µg per disc, dash = lack of the growth inhibition area, read-out: diameter of growth inhibitory zone (GIZ)
[22] = system: S. aureus ATCC 29213; experiment: MIC, twofold serial agar dilution; assay type: cell-based; settings: Staphylococcus aureus, ATCC29213, 18 h, 35 °C, read-out: minimal inhibitory concentrations (MIC)
[23] = system: M. luteus ATCC 9341; experiment: MIC, twofold serial agar dilution; assay type: cell-based; settings: Micrococcus luteus, ATCC9341, 18 h, 35 °C, read-out: minimal inhibitory concentrations (MIC)
[24] = system: B. subtilis ATCC 6633; experiment: MIC, twofold serial agar dilution; assay type: cell-based; settings: Bacillus subtilis, ATCC6633, 18 h, 35 °C, read-out: minimal inhibitory concentrations (MIC)
[25] = system: M. luteus ATCC 10240; experiment: MIC, twofold serial agar dilution; assay type: cell-based; settings: Micrococcus luteus, ATCC10240, 18 h, 35 °C, read-out: minimal inhibitory concentrations (MIC)
[26] = system: S. aureus ATCC 6538; experiment: MIC, twofold serial agar dilution; assay type: cell-based; settings: Staphylococcus aureus, ATCC6538, 18 h, 35 °C, read-out: minimal inhibitory concentrations (MIC)
[27] = system: S. epidermidis (MRSE); experiment: MIC against hospital strains; settings: Staphylococcus epidermidis
[28] = system: S. aureus ATCC 29213; experiment: disc diffusion method; assay type: cell-based, Staphylococcus aureus; settings: Staphylococcus aureus, ATCC29213, applied 400 µg per disc, dash = lack of the growth inhibition area, read-out: diameter of growth inhibitory zone (GIZ)
[29] = system: S. aureus NCTC 4163; experiment: MIC, twofold serial agar dilution; assay type: cell-based; settings: Staphylococcus aureus, NCTC4163, 18 h, 35 °C, read-out: minimal inhibitory concentrations (MIC)
[30] = system: M. luteus ATCC 9341; experiment: disc diffusion method; assay type: cell-based, Micrococcus luteus; settings: Micrococcus luteus, ATCC9341, applied 400 µg per disc, dash = lack of the growth inhibition area, read-out: diameter of growth inhibitory zone (GIZ)
[31] = system: S. aureus ATCC 25923; experiment: disc diffusion method; assay type: cell-based, Staphylococcus aureus; settings: Staphylococcus aureus, ATCC25923, applied 400 µg per disc, dash = lack of the growth inhibition area, read-out: diameter of growth inhibitory zone (GIZ)
[32] = system: S. aureus ATCC 25923; experiment: MIC, twofold serial agar dilution; assay type: cell-based; settings: Staphylococcus aureus, ATCC25923, 18 h, 35 °C, read-out: minimal inhibitory concentrations (MIC)
[33] = system: M. luteus ATCC 10240; experiment: disc diffusion method; assay type: cell-based, Micrococcus luteus; settings: Micrococcus luteus, ATCC10240, applied 400 µg per disc, dash = lack of the growth inhibition area, read-out: diameter of growth inhibitory zone (GIZ)
[34] = system: B. cereus ATCC 11778; experiment: MIC, twofold serial agar dilution; assay type: cell-based; settings: Bacillus cereus, ATCC11778, 18 h, 35 °C, read-out: minimal inhibitory concentrations (MIC)

C[C@@]1(O)[C@H](O)[C@@H](CO)O[C@H]1n1cnc2c(=O)[nH]c(N)nc21 [2′-C-methyl-guanosine, 2′-C-methylguanosine, reference compound]
CC50 [1]: > 10 µM
EC50 [2]: 1.9 ± 0.1 µM
EC50 [3]: 1.1 ± 0.1 µM
CC50 [4]: > 10 µM

S=C(NCCc1c[nH]c2ccccc12)Nc1ccccc1Cl [Compound 13, 1-(2-(1H-Indol-3-yl)ethyl)-3-(2-chlorophenyl)thiourea]
EC50 [5]: > 53 µM
EC50 [6]: > 11 µM
CC50 [7]: 49 µM
EC50 [8]: > 53 µM
melting point: 170 to 172 °C
EC50 [9]: 12 ± 0.9 µM
EC50 [2]: > 11 µM
EC50 [3]: > 49 µM
EC50 [10]: > 53 µM
EC50 [11]: > 53 µM
CC50 [12]: 47 µM
CC50 [13]: 11 µM
CC50 [14]: 53 µM
EC50 [15]: > 53 µM
EC50 [16]: > 47 µM

O=c1cnn([C@@H]2O[C@H](CO)[C@@H](O)[C@H]2O)c(=O)[nH]1 [6-Aza-uridine, 6-azauridine, reference compound]
CC50 [17]: 12 µM
EC50 [10]: 1.4 ± 0.06 µM

S=C(NCCc1c[nH]c2ccccc12)Nc1ccccc1Br [Compound 15, 1-(2-(1H-Indol-3-yl)ethyl)-3-(2-bromophenyl)thiourea]
zone of inhibition at 400 µg/disc [18]: 14 mm
EC50 [5]: > 46 µM
EC50 [6]: > 28 µM
zone of inhibition at 400 µg/disc [19]: 15 mm
zone of inhibition at 400 µg/disc [20]: 12 mm
zone of inhibition at 400 µg/disc [21]: 11 mm
MIC [22]: 50 µg/mL (≈ 134 µM)
MIC [23]: 200 µg/mL (≈ 534 µM)
MIC [24]: 50 µg/mL (≈ 134 µM)
CC50 [7]: 48 µM
MIC [25]: 50 µg/mL (≈ 134 µM)
EC50 [8]: > 46 µM
MIC [26]: 50 µg/mL (≈ 134 µM)
melting point: 150 to 152 °C
EC50 [9]: > 46 µM
EC50 [2]: > 28 µM
MIC ([27]; hospital S. epidermidis MRSE strain 430/11): 400 µg/mL (≈ 1070 µM)
MIC ([27]; hospital S. epidermidis MRSE strain 431/11): 50 µg/mL (≈ 134 µM)
MIC ([27]; hospital S. epidermidis MRSE strain 432/11): 50 µg/mL (≈ 134 µM)
MIC ([27]; hospital S. epidermidis MRSE strain 433/11): 50 µg/mL (≈ 134 µM)
MIC ([27]; hospital S. epidermidis MRSE strain 434/11): 50 µg/mL (≈ 134 µM)
MIC ([27]; hospital S. epidermidis MRSE strain 435/11): 100 µg/mL (≈ 267 µM)
MIC ([27]; hospital S. epidermidis MRSE strain 436/11): 100 µg/mL (≈ 267 µM)
MIC ([27]; hospital S. epidermidis MRSE strain 437/11): 100 µg/mL (≈ 267 µM)
MIC ([27]; hospital S. epidermidis MRSE strain 438/11): 200 µg/mL (≈ 534 µM)
MIC ([27]; hospital S. epidermidis MRSE strain 439/11): 50 µg/mL (≈ 134 µM)
EC50 [3]: > 48 µM
activity against RSV (in words) [10]: moderately active
EC50 [10]: 20 ± 2.5 µM
EC50 [11]: > 46 µM
CC50 [12]: 46 µM
zone of inhibition at 400 µg/disc [28]: 11 mm
MIC [29]: 50 µg/mL (≈ 134 µM)
CC50 [13]: 28 µM
CC50 [14]: 46 µM
EC50 [15]: > 46 µM
zone of inhibition at 400 µg/disc [30]: 13 mm
zone of inhibition at 400 µg/disc [31]: 11 mm
MIC [32]: 100 µg/mL (≈ 267 µM)
zone of inhibition at 400 µg/disc [33]: 14 mm
EC50 [16]: > 46 µM
MIC [34]: 50 µg/mL (≈ 134 µM)
